These results are taken from ChEMBL document CHEMBL1201862, “PubChem BioAssay data set” (2004).

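96-well plates; 48 h exposure; 5 concentrations. Endpoints by linear interpolation between flanking doses. Not reached: highest tested concentration assigned. GI50 = concentration required for 50% inhibition of growth.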 Activity calls are given as the source filed them. No stated cut-off is given here; in the data, active = GI50 up to about 1.1 µM and inactive = higher. A value given as a limit tells only on which side of the number the result lay.

Test systems include NCI/ADR-RES; SF-539; UACC-62; DU-145; SF-268; HCT-116; Malme-3M; RXF 393; NCI-H23; OVCAR-8; ACHN; EKVX; MDA-N; SK-MEL-2; MDA-MB-435; HCT-15; SF-295; BT-549; OVCAR-5; SR.
What all share (experiment): inhibition of tumour cell growth, NCI panel, 48 h

Take `OCCN(CO)CO`: the GI50 in the experiment with NCI/ADR-RES, in the experiment on SF-539, in the experiment on UACC-62, in the experiment with DU-145, with SF-268 and in the experiment on HCT-116 was > 100 µM (inactive) in each case. Besides, the GI50 in the experiment on Malme-3M, with RXF 393, in the experiment with NCI-H23, in the experiment on OVCAR-8, with ACHN and with EKVX was > 100 µM (inactive) throughout. Further, the GI50 in the experiment with MDA-N was > 100 µM (inactive); in the experiment with SK-MEL-2, > 100 µM (inactive); with MDA-MB-435, > 100 µM (inactive); in the experiment with HCT-15, over 100 µM; in the experiment on SF-295 it was > 100 µM (inactive); in the experiment with BT-549 it was > 100 µM (inactive).
On to `O=C1NC(=S)N/C1=C\c1ccc(Cl)cc1`, for which the GI50 in the experiment on NCI/ADR-RES was > 100 µM (inactive); with SF-539, > 100 µM (inactive); with UACC-62, 46.3 µM (inactive); in the experiment on OVCAR-5, > 100 µM (inactive); in the experiment with DU-145, 99.8 µM (inactive); with SF-268, > 100 µM (inactive). Also, the GI50 in the experiment with HCT-116 is > 100 µM (inactive); in the experiment with Malme-3M, > 100 µM (inactive); with RXF 393 it was > 100 µM (inactive); with NCI-H23 it was > 100 µM (inactive); with OVCAR-8, > 100 µM (inactive); in the experiment with EKVX, 33.6 µM (inactive). In addition, the GI50 was > 100 µM (inactive) in the experiment on MDA-N; > 100 µM (inactive) in the experiment with SK-MEL-2; > 100 µM (inactive) with MDA-MB-435; over 100 µM with HCT-15; > 100 µM (inactive) in the experiment on SF-295; > 100 µM (inactive) with BT-549.
For the compound `CC1(CC2=C(C(=O)NCCO[Si](C)(C)C(C)(C)C)C3(OCCO3)C2=O)OCCO1`, the GI50 in the experiment on NCI/ADR-RES, with SF-539, in the experiment with UACC-62, with OVCAR-5, in the experiment with DU-145 and with SF-268 was > 100 µM (inactive) each time. The GI50 with HCT-116 was 68.5 µM (inactive); with Malme-3M, 20.4 µM (inactive); with NCI-H23, 63.5 µM (inactive); with OVCAR-8, > 100 µM (inactive); with ACHN it was > 100 µM (inactive); in the experiment on EKVX, > 100 µM (inactive). The GI50 is > 100 µM (inactive) in the experiment on MDA-N; > 100 µM (inactive) with SK-MEL-2; > 100 µM (inactive) with MDA-MB-435; over 100 µM in the experiment with HCT-15; > 100 µM (inactive) with SF-295; 53.2 µM (inactive) in the experiment with BT-549.
`O=C1C=CC2CCC1C2` (centres undefined): the GI50 in the experiment on NCI/ADR-RES was 22.4 µM (inactive); in the experiment on SF-539 it was 34.7 µM (inactive); in the experiment on UACC-62 it was 19.2 µM (inactive); in the experiment with OVCAR-5 it was 26.2 µM (inactive); with DU-145, 34.2 µM (inactive); with SF-268, 20.2 µM (inactive). For the same compound, the GI50 was 23.4 µM (inactive) with HCT-116; 14.6 µM (inactive) with Malme-3M; 20.6 µM (inactive) in the experiment with NCI-H23; 28.7 µM (inactive) with OVCAR-8; 40.3 µM (inactive) in the experiment on ACHN; > 100 µM (inactive) in the experiment on EKVX. Further, the GI50 is 25 µM (inactive) with MDA-N; 21.4 µM (inactive) in the experiment on SK-MEL-2; 17.2 µM (inactive) in the experiment with MDA-MB-435; 18.2 µM with HCT-15; 44.2 µM (inactive) with SF-295; 21.4 µM (inactive) with BT-549.
Take `O=[N+]([O-])C(Cl)C(Cl)C(Cl)=C(Cl)Cl` (centres undefined): the GI50 in the experiment with NCI/ADR-RES was 40.7 µM (inactive); with SF-539, 38.5 µM (inactive); in the experiment on UACC-62, 16.6 µM (inactive); with OVCAR-5, > 50.2 µM (inactive); with DU-145, 88.7 µM (inactive); with SF-268 it was > 45.8 µM (inactive). Also, the GI50 in the experiment on HCT-116 is 19.4 µM (inactive); in the experiment with Malme-3M it was 14.8 µM (inactive); with RXF 393, 18.5 µM (inactive); in the experiment on NCI-H23, 23.8 µM (inactive); with OVCAR-8 it was 30.9 µM (inactive); with ACHN, 16.4 µM (inactive). Also, the GI50 was > 100 µM (inactive) in the experiment with EKVX; 19.1 µM (inactive) in the experiment on MDA-N; 23.7 µM (inactive) in the experiment with MDA-MB-435; 18.7 µM in the experiment on HCT-15; 60 µM (inactive) with SF-295; 22.6 µM (inactive) in the experiment on BT-549.
For `CC1=CC(=O)/C(=C/Nc2nc(-c3ccc([N+](=O)[O-])cc3)cs2)C(=O)O1`, the GI50 in the experiment with NCI/ADR-RES, with SF-539, in the experiment on UACC-62, in the experiment on OVCAR-5, in the experiment with DU-145 and in the experiment with SF-268 was > 100 µM (inactive) throughout. Moreover, the GI50 with HCT-116 was > 100 µM (inactive); with RXF 393 it was 27.7 µM (inactive); in the experiment with NCI-H23, > 100 µM (inactive); in the experiment on OVCAR-8 it was > 100 µM (inactive); in the experiment on ACHN it was > 100 µM (inactive); in the experiment on EKVX it was > 100 µM (inactive). Moreover, the GI50 was > 100 µM (inactive) in the experiment with MDA-N; > 100 µM (inactive) in the experiment with SK-MEL-2; > 100 µM (inactive) with MDA-MB-435; over 100 µM in the experiment on HCT-15; > 100 µM (inactive) in the experiment on SF-295; > 100 µM (inactive) in the experiment with BT-549.
On to `O=[N+]([O-])c1ccc(/N=N\c2c(O)ccc3ccccc23)c([N+](=O)[O-])c1`, for which the GI50 in the experiment on NCI/ADR-RES, in the experiment with UACC-62, in the experiment on OVCAR-5, in the experiment with DU-145, in the experiment on SF-268 and in the experiment with HCT-116 was > 100 µM (inactive) throughout. Also, the GI50 is > 100 µM (inactive) with Malme-3M; > 100 µM (inactive) in the experiment on RXF 393; > 100 µM (inactive) with NCI-H23; > 100 µM (inactive) in the experiment with OVCAR-8; > 100 µM (inactive) with ACHN; > 60.4 µM (inactive) with EKVX. The GI50 in the experiment on MDA-N is > 100 µM (inactive); in the experiment on SK-MEL-2 it was > 100 µM (inactive); with MDA-MB-435, > 100 µM (inactive); in the experiment with HCT-15, over 100 µM; with SF-295 it was > 100 µM (inactive); in the experiment on BT-549, > 100 µM (inactive).
With `C=C(C(=O)OCC)C(=O)OCC`, the GI50 with SF-539, with UACC-62, with OVCAR-5, in the experiment with DU-145, with SF-268 and with HCT-116 was > 100 µM (inactive) throughout. Further, the GI50 with Malme-3M, with RXF 393, with NCI-H23, in the experiment on OVCAR-8, in the experiment with ACHN and in the experiment on EKVX was > 100 µM (inactive) each time. Moreover, the GI50 was > 100 µM (inactive) in the experiment with MDA-N; > 100 µM (inactive) in the experiment on SK-MEL-2; > 100 µM (inactive) with MDA-MB-435; over 100 µM in the experiment on HCT-15; 20.7 µM (inactive) in the experiment with SR; > 100 µM (inactive) with SF-295. Moreover, the GI50 with BT-549 is > 100 µM (inactive).
Regarding `COc1cc(N(CCC#N)CCC#N)ccc1C(/N=N/c1cccc(C)c1)=N\NC(=O)c1ccc(C)cc1`, the GI50 with NCI/ADR-RES was > 100 µM (inactive); with UACC-62, 37.2 µM (inactive); with OVCAR-5, > 100 µM (inactive); with DU-145 it was > 100 µM (inactive); in the experiment on SF-268 it was 35.5 µM (inactive); in the experiment with HCT-116, > 100 µM (inactive). In addition, the GI50 in the experiment with Malme-3M was 43.5 µM (inactive); with RXF 393 it was 73.8 µM (inactive); with NCI-H23 it was > 100 µM (inactive); in the experiment with OVCAR-8, > 100 µM (inactive); with ACHN, 21.8 µM (inactive); in the experiment on EKVX it was 87.7 µM (inactive). For the same compound, the GI50 is > 100 µM (inactive) in the experiment with MDA-N; > 100 µM (inactive) in the experiment on SK-MEL-2; > 100 µM (inactive) with MDA-MB-435; over 100 µM with HCT-15; > 100 µM (inactive) in the experiment with SF-295; > 100 µM (inactive) in the experiment with BT-549.
Regarding `S=c1oc(CCCCCCCCc2nn(CNc3ccc(Cl)cc3)c(=S)o2)nn1CNc1ccc(Cl)cc1`, the GI50 in the experiment with NCI/ADR-RES is > 100 µM (inactive); in the experiment on UACC-62, 3.88 µM (inactive); in the experiment on OVCAR-5 it was 60.5 µM (inactive); in the experiment on DU-145, > 100 µM (inactive); in the experiment on SF-268, > 100 µM (inactive); in the experiment on HCT-116, > 100 µM (inactive). For the same compound, the GI50 with Malme-3M is > 100 µM (inactive); in the experiment with RXF 393 it was > 100 µM (inactive); with NCI-H23 it was 99.3 µM (inactive); in the experiment on ACHN, 72.3 µM (inactive); in the experiment with EKVX, > 100 µM (inactive); in the experiment with MDA-N it was 43.4 µM (inactive). In addition, the GI50 in the experiment on SK-MEL-2 is > 100 µM (inactive); in the experiment with MDA-MB-435, 10.4 µM (inactive); in the experiment with HCT-15 it was over 100 µM; in the experiment with SF-295 it was 4.92 µM (inactive); in the experiment with BT-549, > 100 µM (inactive).
As to `CC(C)c1ccc(/C=C2\N=C(c3ccc([N+](=O)[O-])cc3)OC2=O)cc1`, the GI50 in the experiment with SF-539, in the experiment with UACC-62, with OVCAR-5, in the experiment on DU-145, in the experiment with SF-268 and with HCT-116 was > 100 µM (inactive) throughout. Besides, the GI50 in the experiment on Malme-3M is 60.3 µM (inactive); with RXF 393, 14.9 µM (inactive); in the experiment on NCI-H23, > 100 µM (inactive); in the experiment on OVCAR-8, > 100 µM (inactive); in the experiment on ACHN, > 100 µM (inactive); in the experiment on EKVX it was > 100 µM (inactive). Moreover, the GI50 in the experiment with MDA-N is > 100 µM (inactive); with SK-MEL-2, > 100 µM (inactive); with MDA-MB-435, > 100 µM (inactive); in the experiment with HCT-15, over 100 µM; with SR, > 100 µM (inactive); in the experiment on SF-295 it was > 100 µM (inactive). Further, the GI50 with BT-549 was > 100 µM (inactive).
